{
  "source": "paper PMC8151276",
  "about": "“An Integrated Approach toward NanoBRET Tracers for Analysis of GPCR Ligand Engagement” (Molecules, 2021)",
  "assay_type_in_all_cases": "binding",
  "key": {"TBXA2R": {"biological_target": "T1, TBXA2R (Homo sapiens, UniProt P21731)", "T1 construct": "purchased Promega (in-house HiBiT-GPCR construct library, NanoBRET)", "T1 sequence (P21731 1-343)": "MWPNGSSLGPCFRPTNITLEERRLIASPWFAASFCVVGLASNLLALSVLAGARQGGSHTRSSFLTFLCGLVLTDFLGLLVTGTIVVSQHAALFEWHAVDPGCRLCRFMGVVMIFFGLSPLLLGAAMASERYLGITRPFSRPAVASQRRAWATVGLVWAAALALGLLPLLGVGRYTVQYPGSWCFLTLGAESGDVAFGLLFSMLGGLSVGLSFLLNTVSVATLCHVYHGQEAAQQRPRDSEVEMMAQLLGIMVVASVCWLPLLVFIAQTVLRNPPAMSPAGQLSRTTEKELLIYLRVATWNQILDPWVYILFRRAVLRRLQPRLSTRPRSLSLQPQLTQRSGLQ", "assay": "NanoBRET screen HiBiT-TBXA2R in HEK293", "experimental": "(§1) Each tracer candidate was screened across the entire library of HiBiT-GPCR constructs using NanoBRET as the detection modality. As depicted in Figure 4A, the specificity of interactions was evaluated through decrease in BRET due to competitive displacement of a bound tracer by excess parental compound. Each tracer was analyzed for binding to each HiBiT-GPCR fusion in the absence and in the presence of competing parental compound. Briefly, HEK293 cells were transfected with HiBiT-GPCR constructs diluted into promoterless DNA to reduce expression and maximize translocation to the cell surface. Each tracer candidate was then screened at concentrations of 1 μM and 0.1 μM across cells expressing these fusions. Cells were treated for 1.5 h with tracer either alone or in the presence of 20 μM competing parental compound (i.e., control). BRET was measured upon addition of purified LgBiT and subsequent complementation with HiBiT genetically fused to a GPCR. The specificity of interactions was assessed through a decrease in BRET signal due to competitive displacement of the bound tracer. To further gauge the robustness of these interactions, the fold response over the control (i.e., BRETtracer/BRETcontrol) was calculated. We chose a 1.5-fold response, which translates to ≥7-fold signal over noise as the minimal threshold required to score an interaction as positive. […]. Below we highlight the screening results obtained for our exemplary fluorescent tracers based on Clozapine, Amitriptyline and AZD1283.\n(§2) HiBiT-GPCR DNA constructs were diluted in 10 mM Tris pH 8 to a final concentration of 0.01 μg/μL, arrayed in 96-well plates and stored at −20 °C. For transfection, HEK293 cells were suspended in Opti-MEM (without phenol red) supplemented with 2% fetal bovine serum (Seradigm) and 100 units/mL penicillin–streptomycin (Gibco) at a final concentration of 220,000 cells/mL and dispensed into white 96-well plates at 90 μL/well. Subsequent transfections and screens were carried using an Agilent Bravo Automated Liquid Handling Platform. First, the 96-well HiBiT DNA arrays were diluted 25-fold in Opti-MEM (without serum or phenol red) to a final concentration of 0.0004 μg/μL and 20 μL of the diluted DNAs were transferred into new 96-well plates. Next, promoterless carrier DNA (1 μg/μL) was diluted 25-fold (0.04 μg/μL) and then dispensed into the diluted arrays at 20 μL/well. Following brief mixing, Viafect transfection reagent (Promega) diluted 16-fold into Opti-MEM was dispensed into the plates at 40 μL/well. After mixing by pipetting, plates were incubated for 10 min on the pipetting station deck. The DNA-transfection reagent complexes were then added to plates containing cells. To facilitate the screen, 10 μL of DNA-transfection reagent complexes were added in duplicates to the top 4 and bottom 4 rows, resulting in two identical 48-well arrays per plate. Plates with transfected cells were incubated for 18–20 h at 37 °C/5% CO2. A screen of each tracer across the entire library using two different concentrations requires duplicate plates of transfected cells. Depending on the number of tracers being screened, transfections can be scaled up using the same ratios. The next day, for each tracer, four 20× screening solutions in tracer dilution buffer (Promega) were prepared: two duplicates at final concentration of 20 μM and two duplicates at a final concentration of 2 μM. A competing unmodified compound was added to one of each duplicate at a final concentration of 400 μM. The four resulting solutions were diluted 4-fold in Opti-MEM without serum or phenol red to generate 5× solutions (5 µM and 0.5 µM tracer +/− 100 μM competing compound). To screen the library, a BioTek MultiFlo FX liquid dispenser was used to dispense 22.5 µL of tracer solution to the top 4 rows and 22.5 µL tracer + competing compound solution to the 4 bottom rows. Plates were briefly mixed on an orbital shaker and incubated for 1.5 h at room temperature. […]"}, "HTR1B": {"biological_target": "T2, HTR1B (Homo sapiens, UniProt P28222)", "T2 construct": "purchased Promega (in-house HiBiT-GPCR construct library, NanoBRET)", "T2 sequence (P28222 whole entry)": "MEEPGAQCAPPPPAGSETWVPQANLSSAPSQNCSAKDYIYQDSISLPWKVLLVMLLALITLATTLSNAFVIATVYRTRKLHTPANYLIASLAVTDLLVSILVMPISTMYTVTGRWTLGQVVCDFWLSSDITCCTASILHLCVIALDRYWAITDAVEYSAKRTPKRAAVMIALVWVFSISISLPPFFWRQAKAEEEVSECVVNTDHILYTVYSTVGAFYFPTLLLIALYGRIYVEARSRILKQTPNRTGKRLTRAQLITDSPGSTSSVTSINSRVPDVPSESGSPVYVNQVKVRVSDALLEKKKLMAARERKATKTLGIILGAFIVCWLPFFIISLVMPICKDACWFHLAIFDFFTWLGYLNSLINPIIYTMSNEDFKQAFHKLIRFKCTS", "assay": "NanoBRET screen HiBiT-HTR1B in HEK293", "experimental": "as §1, §2"}, "CCR3": {"biological_target": "T3, CCR3 (Homo sapiens, UniProt P51677)", "T3 construct": "purchased Promega (in-house HiBiT-GPCR construct library, NanoBRET)", "T3 sequence (P51677 1-355)": "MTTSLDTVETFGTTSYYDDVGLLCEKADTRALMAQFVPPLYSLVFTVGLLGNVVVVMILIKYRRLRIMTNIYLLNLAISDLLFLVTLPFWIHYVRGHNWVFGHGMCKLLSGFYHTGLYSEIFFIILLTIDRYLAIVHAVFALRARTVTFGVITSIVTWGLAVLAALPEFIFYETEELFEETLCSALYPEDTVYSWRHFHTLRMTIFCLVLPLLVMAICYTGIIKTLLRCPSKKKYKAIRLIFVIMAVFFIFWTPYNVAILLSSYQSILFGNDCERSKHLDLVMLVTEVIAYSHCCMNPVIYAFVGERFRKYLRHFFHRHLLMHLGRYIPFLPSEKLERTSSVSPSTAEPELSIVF", "assay": "NanoBRET screen HiBiT-CCR3 in HEK293", "experimental": "as §1, §2"}, "FPR1": {"biological_target": "T4, FPR1 (Homo sapiens, UniProt P21462)", "T4 construct": "purchased Promega (in-house HiBiT-GPCR construct library, NanoBRET)", "T4 sequence (P21462 1-350)": "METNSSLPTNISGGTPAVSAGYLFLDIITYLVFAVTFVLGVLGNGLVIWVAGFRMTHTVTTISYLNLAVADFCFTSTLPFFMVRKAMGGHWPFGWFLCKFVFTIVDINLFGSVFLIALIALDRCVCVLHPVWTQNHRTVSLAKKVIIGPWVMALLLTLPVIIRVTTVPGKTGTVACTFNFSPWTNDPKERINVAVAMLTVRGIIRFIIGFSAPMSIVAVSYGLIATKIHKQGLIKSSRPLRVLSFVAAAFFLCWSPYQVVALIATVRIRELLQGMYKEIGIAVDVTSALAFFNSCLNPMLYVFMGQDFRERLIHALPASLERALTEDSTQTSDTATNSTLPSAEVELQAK", "assay": "NanoBRET screen HiBiT-FPR1 in HEK293", "experimental": "as §1, §2"}, "CNR1": {"biological_target": "T5, CNR1 (Homo sapiens, UniProt P21554)", "T5 construct": "purchased Promega (in-house HiBiT-GPCR construct library, NanoBRET)", "T5 sequence (P21554 whole entry)": "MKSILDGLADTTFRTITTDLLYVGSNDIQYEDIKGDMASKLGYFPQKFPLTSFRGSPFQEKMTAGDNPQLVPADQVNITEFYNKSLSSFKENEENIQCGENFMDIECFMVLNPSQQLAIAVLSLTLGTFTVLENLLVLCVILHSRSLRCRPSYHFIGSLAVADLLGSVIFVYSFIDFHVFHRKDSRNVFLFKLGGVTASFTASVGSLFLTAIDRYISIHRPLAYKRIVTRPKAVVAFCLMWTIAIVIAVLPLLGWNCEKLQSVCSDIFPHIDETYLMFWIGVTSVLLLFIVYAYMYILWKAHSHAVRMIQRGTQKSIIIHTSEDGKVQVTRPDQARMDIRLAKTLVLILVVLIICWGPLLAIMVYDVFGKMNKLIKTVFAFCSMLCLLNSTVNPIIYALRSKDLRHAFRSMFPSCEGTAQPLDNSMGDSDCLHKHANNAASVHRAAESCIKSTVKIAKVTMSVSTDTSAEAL", "assay": "NanoBRET screen HiBiT-CNR1 in HEK293", "details": "CNR1", "experimental": "as §1, §2"}, "[1]": {"details": "tracer at 1μM, listed as amitriptyline-b-2-NB590"}},
  "data": [
    {"smiles": "CCOC(=O)c1cc(C#N)c(N2CCC(C(=O)NS(=O)(=O)Cc3ccccc3/C=C/C(=O)NCCNC(=O)CCc3ccc4n3[B-](F)(F)[N+]3=C(c5ccc[nH]5)C=CC3=C4)CC2)nc1C", "note": "[AZD1283-1-NB590]", "values": [
      {"measurement": "NanoBRET Fold Response", "setting": "TBXA2R; TBXA2R, 0.1μM", "value": 1.04},
      {"measurement": "NanoBRET Fold Response", "setting": "TBXA2R; TBXA2R, 1μM", "value": 1.19},
      {"measurement": "NanoBRET Fold Response", "setting": "HTR1B; HTR1B, 0.1μM", "value": 0.89},
      {"measurement": "NanoBRET Fold Response", "setting": "HTR1B; HTR1B, 1μM", "value": 0.99},
      {"measurement": "NanoBRET Fold Response", "setting": "CCR3; CCR3, 0.1μM", "value": 0.96},
      {"measurement": "NanoBRET Fold Response", "setting": "CCR3; CCR3, 1μM", "value": 1.02},
      {"measurement": "NanoBRET Fold Response", "setting": "FPR1; FPR1, 0.1μM", "value": 1.09},
      {"measurement": "NanoBRET Fold Response", "setting": "FPR1; FPR1, 1μM", "value": 1.05},
      {"measurement": "NanoBRET Fold Response", "setting": "CNR1; 0.1μM", "value": 0.97},
      {"measurement": "NanoBRET Fold Response", "setting": "CNR1; 1μM", "value": 0.51}
    ]},
    {"smiles": "N#CN/C(=N\\CCNC(=O)c1ccc(N)cc1)NCCCOc1cccc(CN2CCCCC2)c1", "note": "[Aminopotentidine (unmodified)]", "values": [
      {"measurement": "NanoBRET Fold Response", "setting": "HTR1B; HTR1B, other tracers/Aminopotentidine (unmodified), 0.1μM", "value": 1.50},
      {"measurement": "NanoBRET Fold Response", "setting": "HTR1B; HTR1B, other tracers/Aminopotentidine (unmodified), 1μM", "value": 1.48}
    ]},
    {"smiles": "N#CN=C(NCCCOc1cccc(CN2CCCCC2)c1)NCCNC(=O)CCOCCOCCOCCOCCNC(=O)CCc1ccc2n1[B-](F)(F)[N+]1=C(c3ccc[nH]3)C=CC1=C2", "note": "[Aminopotentidine-2-NB590]", "values": [
      {"measurement": "NanoBRET Fold Response", "setting": "TBXA2R; TBXA2R, tracer 0.1μM", "value": 0.98},
      {"measurement": "NanoBRET Fold Response", "setting": "TBXA2R; TBXA2R, tracer 1μM", "value": 1.04},
      {"measurement": "NanoBRET Fold Response", "setting": "HTR1B; HTR1B, tracer 0.1μM", "value": 0.98},
      {"measurement": "NanoBRET Fold Response", "setting": "HTR1B; HTR1B, tracer 1μM", "value": 1.03},
      {"measurement": "NanoBRET Fold Response", "setting": "CCR3; CCR3, tracer 0.1μM", "value": 0.95},
      {"measurement": "NanoBRET Fold Response", "setting": "CCR3; CCR3, tracer 1μM", "value": 0.89},
      {"measurement": "NanoBRET Fold Response", "setting": "FPR1; FPR1, tracer 0.1μM", "value": 0.99},
      {"measurement": "NanoBRET Fold Response", "setting": "FPR1; FPR1, tracer 1μM", "value": 0.97},
      {"measurement": "NanoBRET Fold Response", "setting": "CNR1; tracer 0.1μM", "value": 0.98},
      {"measurement": "NanoBRET Fold Response", "setting": "CNR1; tracer 1μM", "value": 1.00}
    ]},
    {"smiles": "CN(C)CCC=C1c2ccccc2CCc2ccc(C(=O)NCCNC(=O)CCOCCOCCOCCOCCNC(=O)CCc3ccc4n3[B-](F)(F)[N+]3=C(c5ccc[nH]5)C=CC3=C4)cc21", "note": "[Amitriptyline-a-2-NB590]", "values": [
      {"measurement": "NanoBRET Fold Response", "setting": "HTR1B; tracer at 0.1μM", "value": 0.98},
      {"measurement": "NanoBRET Fold Response", "setting": "CCR3; tracer at 0.1μM", "value": 1.02},
      {"measurement": "NanoBRET Fold Response", "setting": "CCR3; tracer at 1μM", "value": 0.95},
      {"measurement": "NanoBRET Fold Response", "setting": "FPR1; tracer at 0.1μM", "value": 1.02},
      {"measurement": "NanoBRET Fold Response", "setting": "FPR1; tracer at 1μM", "value": 1.04}
    ]},
    {"smiles": "CN(C)CCC=C1c2ccccc2CCc2ccc(C(=O)NCCNC(=O)CCOCCOCCOCCOCCNC(=O)CCc3ccc4n3[B-](F)(F)[N+]3=C(c5ccc[nH]5)C=CC3=C4)cc21", "note": "[Amitriptyline-b-2-NB590]", "values": [
      {"measurement": "NanoBRET Fold Response", "setting": "TBXA2R; tracer at 0.1μM", "value": 0.90},
      {"measurement": "NanoBRET Fold Response", "setting": "TBXA2R; tracer at 1μM", "value": 1.01},
      {"measurement": "NanoBRET Fold Response", "setting": "HTR1B; tracer at 0.1μM, listed as amitriptyline-b-2-NB590", "value": 1.76},
      {"measurement": "NanoBRET Fold Response", "setting": "HTR1B; [1]", "value": 1.34},
      {"measurement": "NanoBRET Fold Response", "setting": "CCR3; tracer at 0.1μM", "value": 0.90},
      {"measurement": "NanoBRET Fold Response", "setting": "CCR3; [1]", "value": 1.27},
      {"measurement": "NanoBRET Fold Response", "setting": "FPR1; tracer at 0.1μM", "value": 0.96},
      {"measurement": "NanoBRET Fold Response", "setting": "FPR1; [1]", "value": 1.02},
      {"measurement": "NanoBRET Fold Response", "setting": "CNR1; tracer 0.1μM", "value": 1.03},
      {"measurement": "NanoBRET Fold Response", "setting": "CNR1; tracer 1μM", "value": 1.04}
    ]}
  ]
}
